As a reminder, the inhibition is how much of the control response was suppressed. One may read the bioavailability as the share of a dose that reaches the circulation, judged against a reference dose that is usually intravenous. By Cmax is commonly meant the maximum level reached in the sampled fluid or tissue. A word on the IC50: it is the concentration that gives 50% inhibition. As usually defined, the clearance is the volume of plasma or blood freed of the substance per unit of time. A lower clearance goes with a low capacity for elimination.

The source made the active and inactive calls. No cut-off for these calls is given here.

The test system of data set [1] is BMMC. Briefly: Anti-osteoclastogenesis activity in M-CSF/RANKL-induced C57BL/6J mouse BMMC cells assessed as inhibition of osteoclast differentiation at mid-stage at 0.1 uM measured after 3 to 5 days by TRAP staining based analysis relative to control. To be noted: time 3-5 day. In kind it is functional.
A short description of data set [2]: Terminal elimination half life in ICR mouse at 10 mg/kg, po measured upto 24 hrs by LC-MS/MS analysis. In kind it is ADME, organism-based. To be noted: in vivo, read-out: beta t1/2 (converted).
The subject of data set [3] is BMMC. Briefly: Anti-osteoclastogenesis activity in M-CSF/RANKL-induced C57BL/6J mouse BMMC cells assessed as reduction in c-Fos protein expression measured after 3 days by Western blot analysis. The class given is functional, cell-based. The settings on record: dose 0.05-5 µM, time 3.0 day.
Data set [4] concerns BMMC. Briefly: Anti-osteoclastogenesis activity in M-CSF/RANKL-induced C57BL/6J mouse BMMC cells assessed as reduction in MMP9 protein expression measured after 3 days by Western blot analysis. In kind it is functional, cell-based. The settings on record: dose 0.05-5 µM, time 3.0 day. In general terms: A western blot detects proteins with antibodies after separation by electrophoresis.

Data set [5] has as its system BMMC. Kind of data set: Anti-osteoclastogenesis activity in M-CSF/RANKL-induced C57BL/6J mouse BMMC cells assessed as inhibition of osteoclast differentiation at 1 uM incubated for 7 days by TRAP staining based analysis relative to control. The class given is functional. To be noted: 168 h, time 7 day.
Data set [6] relates to BMMC. Briefly: Anti-osteoclastogenesis activity in M-CSF/RANKL-induced C57BL/6J mouse BMMC cells assessed as inhibition of osteoclast differentiation at 0.1 uM incubated for 7 days by TRAP staining based analysis relative to control. In kind it is functional. The settings on record: 168 h, time 7 day.
Data set [7] has as its system Mus musculus. Kind of data set: Anti-osteoporosis activity in ovariectomized C57BL/6 mouse assessed as prevention of bone loss by measuring reduction in osteoclast formation at 0.6 mg/kg, ip administered every day for 6 weeks by H and E staining based analysis. In kind it is functional, organism-based.
A short description of data set [8]: Terminal elimination half life in ICR mouse at 1 mg/kg, iv measured upto 24 hrs by LC-MS/MS analysis. The class given is ADME, organism-based. To be noted: in vivo, read-out: beta t1/2 (converted).
For data set [9], the system named is BMMC. Kind of data set: Anti-osteoclastogenesis activity in M-CSF/RANKL-induced C57BL/6J mouse BMMC cells assessed as inhibition of Nfatc1 gene expression by RNA sequencing analysis. The class given is functional, cell-based.
Data set [10] has as its system BMMC. Briefly: Anti-osteoclastogenesis activity in M-CSF/RANKL-induced C57BL/6J mouse BMMC cells assessed as reduction in c-Fos mRNA expression at 0.05 to 5 uM measured after 2 days by RT-qPCR analysis. The class given is functional, cell-based. The settings on record: dose 0.05-5 µM, time 2.0 day. Background: Quantitative PCR measures a nucleic acid by following its amplification.

Data set [11] deals with BMMC. Kind of data set: Anti-osteoclastogenesis activity in M-CSF/RANKL-induced C57BL/6J mouse BMMC cells assessed as reduction in CTSK mRNA expression at 0.05 to 5 uM measured after 2 days by RT-qPCR analysis. In kind it is functional, cell-based. To be noted: dose 0.05-5 µM, time 2.0 day.
Data set [12] has as its system BMMC. Briefly: Anti-osteoclastogenesis activity in M-CSF/RANKL-induced C57BL/6J mouse BMMC cells assessed as inhibition of Itgb3 gene expression by RNA sequencing analysis. In kind it is functional, cell-based.
Data set [13] in a line: Oral bioavailability in ICR mouse at 10 mg/kg measured upto 24 hrs by LC-MS/MS analysis. The class given is ADME, organism-based. The settings on record: in vivo.
A short description of data set [14]: Apparent volume of distribution in ICR mouse at 1 mg/kg, iv measured upto 24 hrs by LC-MS/MS analysis. In kind it is ADME, organism-based. The settings on record: in vivo, read-out: Vz.
The test system of data set [15] is Mus musculus. Briefly: Anti-osteoporosis activity in ovariectomized C57BL/6 mouse assessed as prevention of bone loss by measuring reduction in osteoclast formation at 0.6 mg/kg, ip administered every day for 6 weeks by TRAP staining based analysis. In kind it is functional, organism-based.
Data set [16] relates to BMMC. Kind of data set: Anti-osteoclastogenesis activity in M-CSF/RANKL-induced C57BL/6J mouse BMMC cells assessed as inhibition of Mapk12 gene expression by RNA sequencing analysis. In kind it is functional, cell-based.
Data set [17] in a line: Cmax in ICR mouse at 1 mg/kg, iv measured upto 24 hrs by LC-MS/MS analysis. The class given is ADME, organism-based. To be noted: in vivo.
Data set [18] deals with BMMC. Kind of data set: Anti-osteoclastogenesis activity in M-CSF/RANKL-induced C57BL/6J mouse BMMC cells assessed as inhibition of FCGR3 gene expression by RNA sequencing analysis. The class given is functional, cell-based.
In data set [19] the test system is BMMC. Briefly: Anti-osteoclastogenesis activity in M-CSF/RANKL-induced C57BL/6J mouse BMMC cells assessed as inhibition of osteoclast differentiation incubated for 7 days by TRAP staining based analysis. In kind it is functional, cell-based. To be noted: 168 h.
Data set [20] deals with BMMC. Kind of data set: Potency index, ratio of bisnoralcohol IC50 to test compound IC50 for anti-osteoclastogenesis activity in M-CSF/RANKL-induced C57BL/6J mouse BMMC cells assessed as inhibition of osteoclast differentiation incubated for 7 days by TRAP staining based analysis. In kind it is functional. The settings on record: time 7 day.
The subject of data set [21] is BMMC. Kind of data set: Anti-osteoclastogenesis activity in M-CSF/RANKL-induced C57BL/6J mouse BMMC cells assessed as inhibition of Traf6 gene expression by RNA sequencing analysis. In kind it is functional, cell-based.
Data set [22] is described as follows: Total plasma clearance in ICR mouse at 1 mg/kg, iv measured upto 24 hrs by LC-MS/MS analysis. In kind it is ADME, organism-based.
Data set [23] in a line: Toxicity in ovariectomized female C57BL/6 mouse assessed as reduction in body weight at 0.2 to 0.6 mg/kg, ip administered every day for 6 weeks. In kind it is organism-based. To be noted: in vivo, 1008 h, dose 0.2-0.6 mg/kg.

In the case of `CCNC(=O)[C@@H](C)[C@H]1CC[C@H]2[C@@H]3CC=C4C(C)(C)c5nnsc5C[C@]4(C)[C@H]3CC[C@]12C`, the inhibition at 0.1 µM was 40.2% with BMMC [1] and 82.8% in the data set with BMMC [6]. For the same compound, the values for the half-life in data set [2] and in [8] were 1.79 h and 1.76 h, respectively. For the same compound, the Activity entry in the data set with BMMC [3] is “Dose-Dependent Effect”; in the data set with BMMC [4], “Dose-Dependent Effect”; in data set [23] it was “Non-Toxic”. The inhibition at 1 µM in the data set with BMMC [5] was 100%. For the same compound, the outcome in the data set with Mus musculus [7], in the data set on BMMC [9], with BMMC [10], in the data set on BMMC [11], in the data set on BMMC [12] and with Mus musculus [15] was Active. In addition, the result with BMMC [16], in the data set on BMMC [18] and with BMMC [21] was Active. Also, in data set [13], the bioavailability was determined as 13.1%. The Vd in [14] was 4.85 L/kg. In data set [17], this compound showed a Cmax of 484 ng/mL. Moreover, in the data set with BMMC [19], the half-inhibitory concentration (IC50) worked out at 52 nM. Further, in the data set on BMMC [20], the “Ratio IC50” value was 45. The clearance in data set [22] was 31.7 mL/min/kg.
